Tests used:
Test in all cases: biochemical
Format in all cases: biochemical
[1] = target: 363 human kinases (including Aurora A/B/C) (Homo sapiens, UniProt P04049); settings: RAF1; for remaining activity at 0.1 µM: 100 nM; for remaining activity at 0.1 µM / remaining activity at 0.5 µM: read-out: % Enzyme Activity (relative to DMSO controls)
Source text: (§1) However, the Aurora A/B selectivity ratios derived from our in vitro and in vivo data can be compared to prioritize inhibitors.

[2] = target: 363 human kinases (including Aurora A/B/C) (Homo sapiens, UniProt P08631); settings: HCK; for remaining activity at 0.1 µM: 100 nM; for remaining activity at 0.1 µM / remaining activity at 0.5 µM: read-out: % Enzyme Activity (relative to DMSO controls)
Sequence of 363 human kinases (including Aurora A/B/C) (Homo sapiens, UniProt P08631) (P08631 whole entry): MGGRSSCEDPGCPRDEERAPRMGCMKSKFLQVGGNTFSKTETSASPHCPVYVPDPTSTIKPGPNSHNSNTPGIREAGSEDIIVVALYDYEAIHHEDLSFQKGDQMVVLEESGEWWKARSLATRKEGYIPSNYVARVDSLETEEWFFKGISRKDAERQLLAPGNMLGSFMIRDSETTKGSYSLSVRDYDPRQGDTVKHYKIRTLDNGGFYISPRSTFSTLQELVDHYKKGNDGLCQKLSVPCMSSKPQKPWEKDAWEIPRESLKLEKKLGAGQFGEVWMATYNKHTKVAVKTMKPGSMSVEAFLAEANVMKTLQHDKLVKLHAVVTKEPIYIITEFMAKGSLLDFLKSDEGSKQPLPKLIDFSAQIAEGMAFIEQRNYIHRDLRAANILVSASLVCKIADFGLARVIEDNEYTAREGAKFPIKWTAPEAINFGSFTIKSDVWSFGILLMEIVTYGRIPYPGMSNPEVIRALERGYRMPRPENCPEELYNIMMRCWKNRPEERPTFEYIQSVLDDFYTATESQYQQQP
Source text: as §1

[3] = target: 363 human kinases (including Aurora A/B/C) (Homo sapiens, UniProt P23458); settings: JAK1; for remaining activity at 0.1 µM: 100 nM; for remaining activity at 0.1 µM / remaining activity at 0.5 µM: read-out: % Enzyme Activity (relative to DMSO controls)
Sequence of 363 human kinases (including Aurora A/B/C) (Homo sapiens, UniProt P23458) (P23458 whole entry): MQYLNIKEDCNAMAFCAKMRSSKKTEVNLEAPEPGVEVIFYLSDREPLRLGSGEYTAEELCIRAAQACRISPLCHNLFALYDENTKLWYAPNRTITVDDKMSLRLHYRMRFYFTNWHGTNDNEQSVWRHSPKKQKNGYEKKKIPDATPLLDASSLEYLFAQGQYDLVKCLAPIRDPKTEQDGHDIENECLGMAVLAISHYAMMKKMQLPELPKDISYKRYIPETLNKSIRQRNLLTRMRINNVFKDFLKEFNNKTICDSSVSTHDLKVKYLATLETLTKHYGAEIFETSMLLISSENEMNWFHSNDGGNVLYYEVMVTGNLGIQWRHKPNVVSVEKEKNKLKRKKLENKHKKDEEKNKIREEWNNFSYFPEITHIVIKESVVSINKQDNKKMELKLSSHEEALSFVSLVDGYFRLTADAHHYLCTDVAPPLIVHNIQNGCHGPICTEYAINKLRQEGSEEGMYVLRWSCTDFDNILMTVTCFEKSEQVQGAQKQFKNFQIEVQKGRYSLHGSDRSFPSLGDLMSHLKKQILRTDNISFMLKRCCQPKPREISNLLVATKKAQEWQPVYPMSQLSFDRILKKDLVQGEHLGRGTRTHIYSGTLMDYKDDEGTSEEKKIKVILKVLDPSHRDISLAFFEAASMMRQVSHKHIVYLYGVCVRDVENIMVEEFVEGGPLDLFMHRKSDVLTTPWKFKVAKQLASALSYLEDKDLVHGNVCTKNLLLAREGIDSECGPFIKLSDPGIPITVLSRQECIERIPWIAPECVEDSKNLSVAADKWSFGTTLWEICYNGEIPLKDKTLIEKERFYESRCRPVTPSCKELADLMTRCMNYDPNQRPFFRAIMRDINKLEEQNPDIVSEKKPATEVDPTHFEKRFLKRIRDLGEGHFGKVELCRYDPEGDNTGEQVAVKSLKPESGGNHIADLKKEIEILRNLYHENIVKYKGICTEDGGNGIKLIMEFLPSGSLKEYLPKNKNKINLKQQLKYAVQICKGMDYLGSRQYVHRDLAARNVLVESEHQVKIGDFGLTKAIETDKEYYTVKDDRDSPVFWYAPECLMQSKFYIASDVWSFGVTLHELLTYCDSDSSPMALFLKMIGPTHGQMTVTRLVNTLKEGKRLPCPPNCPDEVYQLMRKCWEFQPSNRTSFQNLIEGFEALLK
Source text: as §1

[4] = target: T1, 363 human kinases (including Aurora A/B/C) (Homo sapiens, UniProt P29320); settings: EPHA3, [ATP] 50 µM; for remaining activity at 0.1 µM: 100 nM; for remaining activity at 0.1 µM / remaining activity at 0.5 µM: read-out: % Enzyme Activity (relative to DMSO controls)
T1 sequence (P29320 21-983): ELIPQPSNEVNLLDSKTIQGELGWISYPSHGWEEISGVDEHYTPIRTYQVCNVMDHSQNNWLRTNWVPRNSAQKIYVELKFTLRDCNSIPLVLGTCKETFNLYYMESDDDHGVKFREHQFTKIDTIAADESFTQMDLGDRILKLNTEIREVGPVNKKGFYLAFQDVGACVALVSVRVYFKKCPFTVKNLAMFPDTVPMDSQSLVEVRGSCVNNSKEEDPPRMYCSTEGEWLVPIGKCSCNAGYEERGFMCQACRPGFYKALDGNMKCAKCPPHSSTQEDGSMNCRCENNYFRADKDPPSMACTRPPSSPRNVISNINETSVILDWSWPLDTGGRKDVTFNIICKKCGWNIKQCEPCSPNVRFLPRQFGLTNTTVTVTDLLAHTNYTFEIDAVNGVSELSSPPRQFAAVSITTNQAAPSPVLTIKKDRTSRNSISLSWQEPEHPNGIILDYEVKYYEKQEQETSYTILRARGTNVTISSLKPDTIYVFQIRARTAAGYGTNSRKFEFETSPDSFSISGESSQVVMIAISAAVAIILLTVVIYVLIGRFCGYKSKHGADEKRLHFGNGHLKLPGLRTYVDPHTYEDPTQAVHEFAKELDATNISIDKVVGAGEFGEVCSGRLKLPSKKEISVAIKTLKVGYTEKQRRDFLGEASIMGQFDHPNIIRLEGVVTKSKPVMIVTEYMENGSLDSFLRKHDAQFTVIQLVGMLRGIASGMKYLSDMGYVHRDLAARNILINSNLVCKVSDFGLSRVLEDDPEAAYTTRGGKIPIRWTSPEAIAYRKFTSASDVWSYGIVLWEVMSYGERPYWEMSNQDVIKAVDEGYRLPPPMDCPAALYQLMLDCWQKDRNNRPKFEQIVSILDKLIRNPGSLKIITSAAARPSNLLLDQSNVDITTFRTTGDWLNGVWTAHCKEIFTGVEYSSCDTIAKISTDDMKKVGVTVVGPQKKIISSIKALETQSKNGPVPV
Source text: as §1

[5] = target: T2, 363 human kinases (including Aurora A/B/C) (Homo sapiens, UniProt P30530); settings: AXL, [ATP] 100 µM; for remaining activity at 0.1 µM: 100 nM; for remaining activity at 0.1 µM / remaining activity at 0.5 µM: read-out: % Enzyme Activity (relative to DMSO controls)
T2 sequence (P30530 26-894): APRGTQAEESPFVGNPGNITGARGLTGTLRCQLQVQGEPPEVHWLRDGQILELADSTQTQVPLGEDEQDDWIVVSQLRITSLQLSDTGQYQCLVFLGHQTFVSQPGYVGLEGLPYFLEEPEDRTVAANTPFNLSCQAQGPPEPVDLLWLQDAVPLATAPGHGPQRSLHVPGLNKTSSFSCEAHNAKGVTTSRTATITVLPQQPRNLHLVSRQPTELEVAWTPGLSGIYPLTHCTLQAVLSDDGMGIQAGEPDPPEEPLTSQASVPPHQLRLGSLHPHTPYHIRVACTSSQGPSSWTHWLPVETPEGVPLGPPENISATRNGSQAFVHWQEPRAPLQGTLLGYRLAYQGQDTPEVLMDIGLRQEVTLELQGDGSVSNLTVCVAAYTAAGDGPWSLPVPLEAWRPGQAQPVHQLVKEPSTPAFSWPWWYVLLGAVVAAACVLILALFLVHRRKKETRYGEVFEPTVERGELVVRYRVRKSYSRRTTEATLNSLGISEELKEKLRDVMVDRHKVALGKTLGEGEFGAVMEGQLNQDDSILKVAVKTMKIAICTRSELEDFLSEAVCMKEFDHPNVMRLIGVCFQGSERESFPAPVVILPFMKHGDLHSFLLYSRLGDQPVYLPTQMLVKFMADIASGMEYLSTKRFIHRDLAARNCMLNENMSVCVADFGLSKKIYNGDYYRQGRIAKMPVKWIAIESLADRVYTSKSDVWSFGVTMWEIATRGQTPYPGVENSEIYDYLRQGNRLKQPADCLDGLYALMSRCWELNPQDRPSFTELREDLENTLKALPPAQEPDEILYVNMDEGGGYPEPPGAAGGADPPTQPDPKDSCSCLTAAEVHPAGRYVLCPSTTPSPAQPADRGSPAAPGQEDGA
Source text: as §1

[6] = target: 363 human kinases (including Aurora A/B/C) (Homo sapiens, UniProt Q05655); settings: PKCd; for remaining activity at 0.1 µM: 100 nM; for remaining activity at 0.1 µM / remaining activity at 0.5 µM: read-out: % Enzyme Activity (relative to DMSO controls)
Sequence of 363 human kinases (including Aurora A/B/C) (Homo sapiens, UniProt Q05655) (Q05655 whole entry): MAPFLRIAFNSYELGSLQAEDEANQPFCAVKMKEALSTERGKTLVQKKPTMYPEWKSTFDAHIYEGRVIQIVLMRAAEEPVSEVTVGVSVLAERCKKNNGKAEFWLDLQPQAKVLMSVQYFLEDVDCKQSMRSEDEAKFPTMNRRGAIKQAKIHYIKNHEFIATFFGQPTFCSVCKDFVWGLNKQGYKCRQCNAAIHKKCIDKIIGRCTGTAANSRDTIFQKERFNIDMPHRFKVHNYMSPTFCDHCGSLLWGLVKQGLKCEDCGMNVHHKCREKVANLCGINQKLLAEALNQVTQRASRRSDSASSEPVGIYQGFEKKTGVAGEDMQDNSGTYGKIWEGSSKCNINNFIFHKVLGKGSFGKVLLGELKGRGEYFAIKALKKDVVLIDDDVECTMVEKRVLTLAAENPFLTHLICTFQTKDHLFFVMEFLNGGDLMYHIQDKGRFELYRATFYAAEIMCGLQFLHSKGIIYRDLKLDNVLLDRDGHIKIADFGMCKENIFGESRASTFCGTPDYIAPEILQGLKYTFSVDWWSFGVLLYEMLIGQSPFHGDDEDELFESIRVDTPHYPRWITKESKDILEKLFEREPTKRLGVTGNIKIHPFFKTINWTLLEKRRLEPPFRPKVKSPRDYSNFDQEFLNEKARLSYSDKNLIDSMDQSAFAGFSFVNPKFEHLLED
Source text: as §1

[7] = target: 363 human kinases (including Aurora A/B/C) (Homo sapiens, UniProt Q9H1R3); settings: MLCK2/MYLK2; for remaining activity at 0.1 µM: 100 nM; for remaining activity at 0.1 µM / remaining activity at 0.5 µM: read-out: % Enzyme Activity (relative to DMSO controls)
Sequence of 363 human kinases (including Aurora A/B/C) (Homo sapiens, UniProt Q9H1R3) (Q9H1R3 whole entry): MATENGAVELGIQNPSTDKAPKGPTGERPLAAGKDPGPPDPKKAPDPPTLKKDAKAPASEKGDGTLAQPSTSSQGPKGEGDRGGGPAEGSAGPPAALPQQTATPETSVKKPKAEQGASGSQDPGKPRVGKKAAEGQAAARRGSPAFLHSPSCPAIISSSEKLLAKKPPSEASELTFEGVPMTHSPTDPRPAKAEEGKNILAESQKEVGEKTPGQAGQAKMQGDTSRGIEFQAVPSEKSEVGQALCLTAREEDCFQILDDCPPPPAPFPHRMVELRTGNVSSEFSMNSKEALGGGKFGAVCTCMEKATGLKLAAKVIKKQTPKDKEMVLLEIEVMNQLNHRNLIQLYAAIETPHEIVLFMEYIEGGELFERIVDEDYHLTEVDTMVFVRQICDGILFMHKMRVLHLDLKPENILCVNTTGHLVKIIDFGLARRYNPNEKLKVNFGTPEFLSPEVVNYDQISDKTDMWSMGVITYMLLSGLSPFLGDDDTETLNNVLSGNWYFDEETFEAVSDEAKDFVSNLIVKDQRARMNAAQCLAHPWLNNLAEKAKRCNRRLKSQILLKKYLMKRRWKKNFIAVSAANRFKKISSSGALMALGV
Source text: as §1

[8] = target: T3, 363 human kinases (including Aurora A/B/C) (Homo sapiens, UniProt Q9NWZ3); settings: IRAK4; for remaining activity at 0.1 µM: 100 nM; for remaining activity at 0.1 µM / remaining activity at 0.5 µM: read-out: % Enzyme Activity (relative to DMSO controls)
T3 sequence (Q9NWZ3 1-460): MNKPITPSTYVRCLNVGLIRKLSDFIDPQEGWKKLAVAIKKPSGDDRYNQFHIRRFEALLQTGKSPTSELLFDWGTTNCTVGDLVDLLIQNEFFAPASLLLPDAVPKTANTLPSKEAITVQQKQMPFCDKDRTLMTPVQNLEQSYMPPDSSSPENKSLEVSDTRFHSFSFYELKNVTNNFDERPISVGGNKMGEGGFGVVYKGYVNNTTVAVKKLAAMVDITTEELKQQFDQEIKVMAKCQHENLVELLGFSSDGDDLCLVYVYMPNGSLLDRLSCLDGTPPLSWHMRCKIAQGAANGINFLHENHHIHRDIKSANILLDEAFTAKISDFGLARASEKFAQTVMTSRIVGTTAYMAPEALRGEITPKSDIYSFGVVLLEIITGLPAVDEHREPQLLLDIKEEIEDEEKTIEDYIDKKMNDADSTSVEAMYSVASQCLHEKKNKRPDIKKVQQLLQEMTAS
Source text: as §1

[9] = target: 363 human kinases (including Aurora A/B/C) (Homo sapiens, UniProt Q9UEW8); settings: STK39/STLK3; for remaining activity at 0.1 µM: 100 nM; for remaining activity at 0.1 µM / remaining activity at 0.5 µM: read-out: % Enzyme Activity (relative to DMSO controls)
Source text: as §1

Sequence of 363 human kinases (including Aurora A/B/C) (Homo sapiens, UniProt P04049) (P04049 whole entry): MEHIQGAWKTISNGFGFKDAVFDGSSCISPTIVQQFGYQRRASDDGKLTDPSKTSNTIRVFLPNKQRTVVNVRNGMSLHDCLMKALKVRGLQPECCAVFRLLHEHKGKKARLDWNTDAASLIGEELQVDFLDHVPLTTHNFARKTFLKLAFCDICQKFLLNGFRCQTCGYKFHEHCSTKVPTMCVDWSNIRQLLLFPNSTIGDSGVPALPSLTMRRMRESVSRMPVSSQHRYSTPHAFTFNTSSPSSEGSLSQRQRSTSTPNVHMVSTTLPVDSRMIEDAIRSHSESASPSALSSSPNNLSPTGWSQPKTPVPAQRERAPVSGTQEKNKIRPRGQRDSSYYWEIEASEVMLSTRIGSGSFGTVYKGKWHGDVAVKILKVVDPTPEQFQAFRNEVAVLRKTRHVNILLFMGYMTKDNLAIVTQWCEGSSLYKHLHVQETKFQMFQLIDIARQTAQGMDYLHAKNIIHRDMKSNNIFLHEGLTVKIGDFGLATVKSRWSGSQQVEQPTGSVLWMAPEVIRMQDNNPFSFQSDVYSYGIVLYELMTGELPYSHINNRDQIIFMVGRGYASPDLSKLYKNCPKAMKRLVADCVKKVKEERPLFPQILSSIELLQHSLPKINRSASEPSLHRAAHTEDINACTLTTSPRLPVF

Q: For `CCn1cc(-c2ccnc3[nH]c(-c4cccc(CN(C)C)c4)cc23)c(-c2ccc(NC(=O)N(C)C)cc2)n1` [GSK1070916], which remaining activity at 0.1 µM [1] is on record?
A: 100%

Q: What about the remaining activity at 0.1 µM [2] of the same molecule?
A: 102%

Q: What about the remaining activity at 0.1 µM [3] of the same molecule?
A: 95.8%

Q: What about the remaining activity at 0.1 µM [4] of the same molecule?
A: 93.1%

Q: What about the remaining activity at 0.1 µM [5] of the same molecule?
A: 103%

Q: What about the remaining activity at 0.1 µM [6] of the same molecule?
A: 201%

Q: What about the remaining activity at 0.1 µM [7] of the same molecule?
A: 96.2%

Q: What about the remaining activity at 0.1 µM [8] of the same molecule?
A: 84.3%

Q: What about the remaining activity at 0.1 µM [9] of the same molecule?
A: 100%

Q: For `O=C(O)[C@]1(Cc2cccc(Nc3nccs3)n2)CC[C@@H](Oc2cccc(Cl)c2F)CC1` [MK-5108], which remaining activity at 0.1 µM [1] is on record?
A: 97.7%

Q: And the remaining activity at 0.5 µM ([1]; 500 nM)?
A: 94.8%

Q: And the remaining activity at 0.1 µM [2]?
A: 46.1%

Q: And the remaining activity at 0.5 µM ([2]; 500 nM)?
A: 20.2%

Q: And the remaining activity at 0.1 µM [3]?
A: 99.4%

Q: What about the remaining activity at 0.5 µM ([3]; 500 nM) of the same molecule?
A: 61.6%

Q: What about the remaining activity at 0.1 µM [4] of the same molecule?
A: 67.4%

Q: And the remaining activity at 0.5 µM ([4]; 500 nM)?
A: 31.4%

Q: What about the remaining activity at 0.1 µM [5] of the same molecule?
A: 38.5%

Q: And the remaining activity at 0.5 µM ([5]; 500 nM)?
A: 14%

Q: And the remaining activity at 0.1 µM [6]?
A: 97.8%

Q: And the remaining activity at 0.5 µM ([6]; 500 nM)?
A: 201%

Q: What about the remaining activity at 0.1 µM [7] of the same molecule?
A: 102%

Q: And the remaining activity at 0.5 µM ([7]; 500 nM)?
A: 97.8%

Q: And the remaining activity at 0.1 µM [8]?
A: 47.6%

Q: And the remaining activity at 0.5 µM ([8]; 500 nM)?
A: 25.6%

Q: And the remaining activity at 0.1 µM [9]?
A: 105%

Q: And the remaining activity at 0.5 µM ([9]; 500 nM)?
A: 97.4%

Q: Which “% Enzyme Activity (relative to DMSO controls)” value ([1]; 500 nM) does the source give for `O=C(c1cccc(Cl)c1F)N1CCN(Cc2cccc(Nc3nccs3)n2)CC1` [MK-8745] here?
A: 93.98%

Q: And the remaining activity at 0.5 µM ([1]; 500 nM)?
A: 95.6%

Q: What about the “% Enzyme Activity (relative to DMSO controls)” value ([2]; 500 nM) of the same molecule?
A: 52.42%

Q: And the remaining activity at 0.5 µM ([2]; 500 nM)?
A: 53.9%

Q: And the “% Enzyme Activity (relative to DMSO controls)” value ([3]; 500 nM)?
A: 103.50%

Q: And the remaining activity at 0.5 µM ([3]; 500 nM)?
A: 104%

Q: What about the “% Enzyme Activity (relative to DMSO controls)” value ([4]; 500 nM) of the same molecule?
A: 84.89%

Q: And the remaining activity at 0.5 µM ([4]; 500 nM)?
A: 85.5%

Q: And the “% Enzyme Activity (relative to DMSO controls)” value ([5]; 500 nM)?
A: 9.19%

Q: And the remaining activity at 0.5 µM ([5]; 500 nM)?
A: 9.98%

Q: What about the “% Enzyme Activity (relative to DMSO controls)” value ([6]; 500 nM) of the same molecule?
A: 130.26%

Q: And the remaining activity at 0.5 µM ([6]; 500 nM)?
A: 141%

Q: And the “% Enzyme Activity (relative to DMSO controls)” value ([7]; 500 nM)?
A: 94.16%

Q: And the remaining activity at 0.5 µM ([7]; 500 nM)?
A: 94.3%

Q: And the “% Enzyme Activity (relative to DMSO controls)” value ([8]; 500 nM)?
A: 79.25%

Q: And the remaining activity at 0.5 µM ([8]; 500 nM)?
A: 79.4%

Q: And the “% Enzyme Activity (relative to DMSO controls)” value ([9]; 500 nM)?
A: 98.73%

Q: What about the remaining activity at 0.5 µM ([9]; 500 nM) of the same molecule?
A: 99.8%

From PMC4685510, “A Cell Biologist’s Field Guide to Aurora Kinase Inhibitors” (Frontiers in Oncology, 2015)
